Among the data in patent US9359377B2, “Substituted imidazo[1,2-a]imidazo[4′,5′:4,5]pyrrolo[1,2-d]pyrazines for treating respiratory syncytial virus infections” (Biota Scientific Management Pty Ltd., priority 2011, dated 2016) are EC50 values, retold here.

Where only a bound is given, the exact number is not on record here.

In general, EC50 refers to the concentration at which the effect is half-maximal.

The subject of the first assay is RSV A2. Put plainly: RSV antiviral cytopathic effect (CPE) assay in HEp2 cells, MTT readout. It is filed as cell-based, respiratory syncytial virus. The conditions noted are these: HEp2 cells infected with RSV A2, moi ~0.01, 5 days, inhibition of CPE by 50%; read-out: Activity Range (RSV A2 EC50 mean values). The method, then:
RSV Antiviral Assay Protocol
Compounds of the invention were tested for their antiviral activity against respiratory syncytial virus. Cytopathic effect (CPE) assays were performed essentially as described in the literature (see, for example, Watanabe et al, 1994, J. Virological Methods, 48:257). Serial dilutions of the test compounds were made in 96 well plates. HEp2 cells (1.0×10^4 cells/well) were infected with RSV at a low multiplicity of infection (e.g. RSV A2 at an moi of ˜0.01) and added to plates to assess antiviral activity. Uninfected HEp2 cells were used to assess compound cytotoxicity. Assays were incubated for 5 days at 37° C. in a 5% CO2 atmosphere. The extent of CPE was determined via metabolism of the vital dye 3-(4,5-dimethylthiaxol-2-yl)-2,5-diphenyltetrazolium bromide (MTT). MTT (1 mg/ml) was added to each well and plates incubated for 2 hours incubation at 37° C. Wells were aspirated, iso-propanol (200 μL) was added and absorbance values read at 540/650 nm. Compound concentrations that inhibited CPE by 50% (EC50) and developed cytotoxicity (CC50) were calculated using non-linear regression analysis.
In the inventors' experience, replicate EC50 values usually fall within three standard deviations of the mean.
Background: Protection from cytopathic effect is a common read-out in antiviral testing.
Turning to “11a-(4-fluorophenyl)-1-(furan-2-ylacetyl)-2,3,11,11a-tetrahydro-1H,5H-imidazo[1,2-a]thieno[3′,2′:4,5]pyrrolo[1,2-d]pyrazin-5-one [Compound 22]”, the EC50 was greater than 10000 nM.

Still in this assay, the particulars now being: human respiratory syncytial virus, HEp-2, 120 h; HEp2 cells infected with RSV A2, moi ~0.01, 5 days, inhibition of CPE by 50%; read-out: Activity Range (RSV A2 EC50 mean values).
Consider `O=C1c2cc3ccsc3n2CC2(c3ccc(F)cc3)N1CCN2S(=O)(=O)c1ccccc1` (centres unmarked) [Compound 25, 11a-(4-fluorophenyl)-1-(phenylsulfonyl)-2,3,11,11a-tetrahydro-1H,5H-imidazo[1,2-a]thieno[3′,2′:4,5]pyrrolo[1,2-d]pyrazin-5-one], for which the EC50 is greater than 10000 nM.
Same read-out and setting: under `O=C(c1ccco1)N1CCN2C(=O)c3cc4ccsc4n3CC12c1ccc(F)cc1` (centres unmarked) [Compound 15, 11a-(4-fluorophenyl)-1-(furan-2-ylcarbonyl)-2,3,11,11a-tetrahydro-1H,5H-imidazo[1,2-a]thieno[3′,2′:4,5]pyrrolo[1,2-d]pyrazin-5-one] stands greater than 10000 nM; under `Cc1nocc1C(=O)N1CCN2C(=O)c3cc4ncccc4n3CC12c1ccc(F)cc1` (centres unmarked) [Compound 12, 12a-(4-fluorophenyl)-1-[(3-methyl-1,2-oxazol-4-yl)carbonyl]-2,3,12,12a-tetrahydro-1H,5H-imidazo[1,2-a]pyrido[2′,3′:4,5]pyrrolo[1,2-d]pyrazin-5-one], 100 to 499 nM.
The same measure, in the same setting: under `COc1ccc(C23Cn4c(cc5cccnc54)C(=O)N2CCN3C(=O)c2conc2C)cc1` (centres unmarked) [Compound 8, 12a-(4-methoxyphenyl)-1-[(3-methyl-1,2-oxazol-4-yl)carbonyl]-2,3,12,12a-tetrahydro-1H,5H-imidazo[1,2-a]pyrido[3′,2′:4,5]pyrrolo[1,2-d]pyrazin-5-one] stands no more than 49 nM; under `Cc1ccc(C23Cn4c(cc5cccnc54)C(=O)N2CCN3C(=O)c2conc2C)cc1` (centres unmarked) [Compound 10, 1-[(3-methyl-1,2-oxazol-4-yl)carbonyl]-12a-(4-methylphenyl)-2,3,12,12a-tetrahydro-1H,5H-imidazo[1,2-a]pyrido[3′,2′:4,5]pyrrolo[1,2-d]pyrazin-5-one], no more than 49 nM; under `Cn1nc(C(C)(C)C)cc1C(=O)N1CCN2C(=O)c3cc4ccsc4n3CC12c1ccc(F)cc1` (centres unmarked) [Compound 20, 1-[(3-tert-butyl-1-methyl-1H-pyrazol-5-yl)carbonyl]-11a-(4-fluorophenyl)-2,3,11,11a-tetrahydro-1H,5H-imidazo[1,2-a]thieno[3′,2′:4,5]pyrrolo[1,2-d]pyrazin-5-one], greater than 10000 nM.
The same measure, in the same setting: under `Cc1nocc1C(=O)N1CCN2C(=O)c3cc4cccnc4n3CC12c1ccc(F)cc1` (centres unmarked) [Compound 11, 12a-(4-fluorophenyl)-1-[(3-methyl-1,2-oxazol-4-yl)carbonyl]-2,3,12,12a-tetrahydro-1H,5H-imidazo[1,2-a]pyrido[3′,2′:4,5]pyrrolo[1,2-d]pyrazin-5-one] stands no more than 49 nM; under `Cc1ocnc1C(=O)N1CCN2C(=O)c3cc4ccsc4n3CC12c1ccc(F)cc1` (centres unmarked) [Compound 21, 11a-(4-fluorophenyl)-1-[(5-methyl-1,3-oxazol-4-yl)carbonyl]-2,3,11,11a-tetrahydro-1H,5H-imidazo[1,2-a]thieno[3′,2′:4,5]pyrrolo[1,2-d]pyrazin-5-one], 100 to 499 nM.
Consider `COc1ccc(C23Cn4c(cc5ncccc54)C(=O)N2CCN3C(=O)c2conc2C)cc1` (centres unmarked) [Compound 9, 12a-(4-methoxyphenyl)-1-[(3-methyl-1,2-oxazol-4-yl)carbonyl]-2,3,12,12a-tetrahydro-1H,5H-imidazo[1,2-a]pyrido[2′,3′:4,5]pyrrolo[1,2-d]pyrazin-5-one], for which the EC50 was in the range of 100 to 499 nM.
Regarding `Cc1cc(C(=O)N2CCN3C(=O)c4cc5ccsc5n4CC23c2ccc(F)cc2)no1` (centres unmarked) [Compound 18, 11a-(4-fluorophenyl)-1-[(5-methyl-1,2-oxazol-3-yl)carbonyl]-2,3,11,11a-tetrahydro-1H,5H-imidazo[1,2-a]thieno[3′,2′:4,5]pyrrolo[1,2-d]pyrazin-5-one], the EC50 is greater than 10000 nM.
Same read-out and setting: under `Cc1ccc(C23Cn4c(cc5ccsc54)C(=O)N2CCN3C(=O)c2conc2C)cc1` (centres unmarked) [Compound 7, 1-[(3-methyl-1,2-oxazol-4-yl)carbonyl]-11a-(4-methylphenyl)-2,3,11,11 a-tetrahydro-1H,5H-imidazo[1,2-a]thieno[3′,2′:4,5]pyrrolo[1,2-d]pyrazin-5-one] stands no more than 49 nM; under `O=C(CC1CCCCC1)N1CCN2C(=O)c3cc4ccsc4n3CC12c1ccc(F)cc1` (stereo not drawn) [Compound 19, l-(cyclohexylacetyl)-11a-(4-fluorophenyl)-2,3,11,11a-tetrahydro-1H,5H-imidazo[1,2-a]thieno[3′,2′:4,5]pyrrolo[1,2-d]pyrazin-5-one], greater than 10000 nM.
On the same count and under the same terms, under `COc1ccc(C23Cn4c(cc5ccsc54)C(=O)N2CCN3C(=O)c2conc2C)cc1` (centres unmarked) [Compound 1, 11a-(4-methoxyphenyl)-1-[(3-methyl-1,2-oxazol-4-yl)carbonyl]-2,3,11,11a-tetrahydro-1H,5H-imidazo[1,2-a]thieno[3′,2′:4,5]pyrrolo[1,2-d]pyrazin-5-one] stands no more than 49 nM; under `O=C1c2cc3ccsc3n2CC2(c3ccc(F)cc3)N1CCN2S(=O)(=O)Cc1ccccc1` (centres unmarked) [Compound 26, 1-(benzylsulfonyl)-11a-(4-fluorophenyl)-2,3,11,11a-tetrahydro-1H,5H-imidazo[1,2-a]thieno[3′,2′:4,5]pyrrolo[1,2-d]pyrazin-5-one], greater than 10000 nM; under `O=C1c2cc3ccsc3n2CC2(c3ccc(F)cc3)N1CCN2S(=O)(=O)c1ccc([N+](=O)[O-])cc1` (centres unmarked) [Compound 27, 11a-(4-fluorophenyl)-1-[(4-nitrophenyl)sulfonyl]-2,3,11,11a-tetrahydro-1H,5H-imidazo[1,2-a]thieno[3′,2′:4,5]pyrrolo[1,2-d]pyrazin-5-one], 500 to 10000 nM.
Still for that read-out and setting: under `Cc1nocc1C(=O)N1CCN2C(=O)c3cc4ccsc4n3CC12c1ccc(F)cc1` (centres unmarked) [Compound 6, 11a-(4-fluorophenyl)-1-[(3-methyl-1,2-oxazol-4-yl)carbonyl]-2,3,11,11a-tetrahydro-1H,5H-imidazo[1,2-a]thieno[3′,2′:4,5]pyrrolo[1,2-d]pyrazin-5-one] stands no more than 49 nM; under `COc1ccc(C23Cn4c(cc5[nH]c(C)nc54)C(=O)N2CCN3C(=O)c2conc2C)cc1` (centres unmarked) [Compound 2, 5a-(4-methoxyphenyl)-2-methyl-6-[(3-methyl-1,2-oxazol-4-yl)carbonyl]-5a,6,7,8-tetrahydro-5H-imidazo[1,2-a]imidazo[4′,5′:4,5]pyrrolo[1,2-d]pyrazin-10(1H)-one], no more than 49 nM.
As to `COc1ccc(C23Cn4c(cc5occc54)C(=O)N2CCN3C(=O)c2conc2C)cc1` (centres unmarked) [Compound 3, 5a-(4-methoxyphenyl)-6-[(3-methyl-1,2-oxazol-4-yl)carbonyl]-5a,6,7,8-tetrahydro-5H,10H-furo[2′,3′:4,5]pyrrolo[1,2-a]imidazo[1,2-d]pyrazin-10-one], the concentration giving a half-maximal response (EC50) lay in the range of 50 to 99 nM.
With `O=C(NC1CCCCC1)N1CCN2C(=O)c3cc4ccsc4n3CC12c1ccc(F)cc1` (centres unmarked) [Compound 24, N-cyclohexyl-11a-(4-fluorophenyl)-5-oxo-2,3,11,11a-tetrahydro-1H,5H-imidazo[1,2-a]thieno[3′,2′:4,5]pyrrolo[1,2-d]pyrazine-1-carboxamide], the EC50 was greater than 10000 nM.
On the same count and under the same terms, under `COc1ccc(C23Cn4c(cc5ccccc54)C(=O)N2CCN3C(=O)c2conc2C)cc1` (centres unmarked) [Compound 4, 12a-(4-methoxyphenyl)-1-[(3-methyl-1,2-oxazol-4-yl)carbonyl]-2,3,12,12a-tetrahydro-1H,5H-imidazo[1′,2′:4,5]pyrazino[1,2-a]indol-5-one] stands no more than 49 nM.
With `O=C1c2cc3ccsc3n2CC2(c3ccc(F)cc3)N1CCN2C(=O)C1CCCCC1` (centres unmarked) [Compound 14, 1-(cyclohexylcarbonyl)-11a-(4-fluorophenyl)-2,3,11,11a-tetrahydro-1H,5H-imidazo[1,2-a]thieno[3′,2′:4,5]pyrrolo[1,2-d]pyrazin-5-one], the EC50 was greater than 10000 nM.
The same measure, in the same setting: under `CC(C)C(=O)N1CCN2C(=O)c3cc4ccsc4n3CC21c1ccc(F)cc1` (centres unmarked) [Compound 17, 11a-(4-fluorophenyl)-1-(2-methylpropanoyl)-2,3,11,11a-tetrahydro-1H,5H-imidazo[1,2-a]thieno[3′,2′:4,5]pyrrolo[1,2-d]pyrazin-5-one] stands greater than 10000 nM; under `COc1ccc(C23Cn4c(cc5sccc54)C(=O)N2CCN3C(=O)c2conc2C)cc1` (centres unmarked) [Compound 5, 5a-(4-methoxyphenyl)-6-[(3-methyl-1,2-oxazol-4-yl)carbonyl]-5a,6,7,8-tetrahydro-5H,10H-imidazo[1,2-a]thieno[2′,3′:4,5]pyrrolo[1,2-d]pyrazin-10-one], 100 to 499 nM.
Same read-out and setting: under `Cc1ccc(C23Cn4c(cc5ccsc54)C(=O)N2CCN3C(=O)c2conc2C)cn1` (centres unmarked) [Compound 13, 1-[(3-methyl-1,2-oxazol-4-yl)carbonyl]-11a-(6-methylpyridin-3-yl)-2,3,11,11a-tetrahydro-1H,5H-imidazo[1,2-a]thieno[3′,2′:4,5]pyrrolo[1,2-d]pyrazin-5-one] stands no more than 49 nM; under `O=C1c2cc3ccsc3n2CC2(c3ccc(F)cc3)N1CCN2C(=O)C1CC1` (centres unmarked) [Compound 16, 1-(cyclopropylcarbonyl)-11a-(4-fluorophenyl)-2,3,11,11a-tetrahydro-1H,5H-imidazo[1,2-a]thieno[3′,2′:4,5]pyrrolo[1,2-d]pyrazin-5-one], greater than 10000 nM.
